The DC50 is the concentration giving 50% degradation.

For the first assay, the target named is T1, ER (Homo sapiens, UniProt P03372).
T1 construct: host or cells: T47D and MCF7 human breast cancer cells
T1 sequence (P03372 1-595): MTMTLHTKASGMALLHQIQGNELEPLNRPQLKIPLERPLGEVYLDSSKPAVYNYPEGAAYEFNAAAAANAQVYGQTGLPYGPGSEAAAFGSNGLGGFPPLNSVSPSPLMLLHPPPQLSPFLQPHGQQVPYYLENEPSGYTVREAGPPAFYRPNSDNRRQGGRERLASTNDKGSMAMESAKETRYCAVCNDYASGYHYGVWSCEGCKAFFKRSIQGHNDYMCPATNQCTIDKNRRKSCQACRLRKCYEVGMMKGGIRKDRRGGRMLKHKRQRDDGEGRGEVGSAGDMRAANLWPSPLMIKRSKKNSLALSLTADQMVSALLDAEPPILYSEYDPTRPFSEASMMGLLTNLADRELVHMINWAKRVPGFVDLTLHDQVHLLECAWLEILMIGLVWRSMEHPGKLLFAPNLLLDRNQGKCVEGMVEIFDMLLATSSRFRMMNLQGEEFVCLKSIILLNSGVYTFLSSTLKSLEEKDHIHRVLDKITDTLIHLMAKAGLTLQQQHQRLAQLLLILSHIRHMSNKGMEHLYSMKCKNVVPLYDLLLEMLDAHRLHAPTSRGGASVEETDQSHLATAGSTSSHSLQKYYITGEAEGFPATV
The experiment in a line: ER degradation activity, in-cell western blot analysis in T47D cells. The class given is cell-based. To be noted: 16 hours, Table A does not say which cell line (T47D or MCF7), read-out: Potency (DC50). The procedure, abridged:
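Read-out is near-infrared fluorescence from an in-cell western, expressed as ER percentage relative to untreated and DMSO controls taken as 100%. T47D breast cancer cells received compound for 16 h in 0.5% DMSO.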
Turning to `O=C1CCC(N2C(=O)c3cc4c(cc3C2=O)CN(C(=O)CN2CCC3(CC2)CN(c2ccc([C@@H]5c6ccc(O)cc6CC[C@@H]5c5ccccc5)cc2)C3)C4)C(=O)N1` (mixture of isomers) [E 150, Rac-2-(2,6-dioxopiperidin-3-yl)-6-(2-(2-(4-((1R,2S)-6-hydroxy-2-phenyl-1,2,3,4-tetrahydronaphthalen-1-yl)phenyl)-2,7-diazaspiro[3.5]nonan-7-yl)acetyl)-6,7-dihydropyrrolo[3,4-f]isoindole-1,3(2H,5H)-dione], the DC50 was > 100 nM.

As to `C[C@@H]1Cc2c([nH]c3ccccc23)[C@@H](c2c(F)cc(N3CCC(CN4CCC(CN5Cc6cc7c(cc6C5)C(=O)N(C5CCC(=O)NC5=O)C7=O)CC4)CC3)cc2F)N1CC(F)F` (stereo partly drawn) [E 128, 6-((1-((1-(4-((1R,3R)-2-(2,2-difluoroethyl)-3-methyl-2,3,4,9-tetrahydro-1H-pyrido[3,4-b]indol-1-yl)-3,5-difluorophenyl)piperidin-4-yl)methyl)piperidin-4-yl)methyl)-2-(2,6-dioxopiperidin-3-yl)-6,7-dihydropyrrolo[3,4-f]isoindole-1,3(2H,5H)-dione], the 50% degradation concentration (DC50) is < 10 nM.

Take `C[C@@H]1Cc2c([nH]c3ccccc23)[C@@H](c2c(F)cc(-c3ccc(C(=O)N4CCC(N5Cc6cc7c(cc6C5)C(=O)N(C5CCC(=O)NC5=O)C7=O)CC4)nn3)cc2F)N1CC(F)F` (stereo partly drawn) [E 345, 6-(1-(6-(4-((1R,3R)-2-(2,2-difluoroethyl)-3-methyl-2,3,4,9-tetrahydro-1H-pyrido[3,4-b]indol-1-yl)-3,5-difluorophenyl)pyridazine-3-carbonyl)piperidin-4-yl)-2-(2,6-dioxopiperidin-3-yl)-6,7-dihydropyrrolo[3,4-f]isoindole-1,3(2H,5H)-dione]: the DC50 lay within 10 to 100 nM.

Turning to `C[C@@H]1Cc2c([nH]c3ccccc23)[C@@H](c2c(F)cc(N3CC(C(=O)N4CC(CN5Cc6cc7c(cc6C5)C(=O)N(C5CCC(=O)NC5=O)C7=O)C4)C3)cc2F)N1CC(F)F` (stereo partly drawn) [E 230, 6-((1-(1-(4-((1R,3R)-2-(2,2-difluoroethyl)-3-methyl-2,3,4,9-tetrahydro-1H-pyrido[3,4-b]indol-1-yl)-3,5-difluorophenyl)azetidine-3-carbonyl)azetidin-3-yl)methyl)-2-(2,6-dioxopiperidin-3-yl)-6,7-dihydropyrrolo[3,4-f]isoindole-1,3(2H,5H)-dione], the DC50 is 10 to 100 nM.

`C[C@@H]1Cc2c([nH]c3ccccc23)[C@@H](c2c(F)cc(N3CCC(CN4CC5(CC(N6Cc7cc8c(cc7C6)C(=O)N(C6CCC(=O)NC6=O)C8=O)C5)C4)CC3)cc2F)N1CC(F)F` (stereo partly drawn) [E 131, 6-(2-((1-(4-((1R,3R)-2-(2,2-difluoroethyl)-3-methyl-2,3,4,9-tetrahydro-1H-pyrido[3,4-b]indol-1-yl)-3,5-difluorophenyl)piperidin-4-yl)methyl)-2-azaspiro[3.3]heptan-6-yl)-2-(2,6-dioxopiperidin-3-yl)-6,7-dihydropyrrolo[3,4-f]isoindole-1,3(2H,5H)-dione]: the DC50 is < 10 nM.

In the case of `O=C1CCC(N2C(=O)c3cc4c(cc3C2=O)CN(CC(=O)N2CCC3(CC2)CCN(c2ccc([C@@H]5c6ccc(O)cc6CC[C@@H]5c5ccc(F)cc5)cc2)C3)C4)C(=O)N1` (stereo partly drawn) [E 186, 2-(2,6-dioxopiperidin-3-yl)-6-(2-(2-(4-((1R,2S)-2-(4-fluorophenyl)-6-hydroxy-1,2,3,4-tetrahydronaphthalen-1-yl)phenyl)-2,8-diazaspiro[4.5]decan-8-yl)-2-oxoethyl)-6,7-dihydropyrrolo[3,4-f]isoindole-1,3(2H,5H)-dione], the half-maximal degradation concentration (DC50) lay within 10 to 100 nM.

In the case of `C[C@@H]1Cc2c([nH]c3ccccc23)[C@@H](c2c(F)cc(N3CC(F)(C(=O)N4CCC(CN5Cc6cc7c(cc6C5)C(=O)N(C5CCC(=O)NC5=O)C7=O)CC4)C3)cc2F)N1CC(F)F` (stereo partly drawn) [E 209, 6-((1-(1-(4-((1R,3R)-2-(2,2-difluoroethyl)-3-methyl-2,3,4,9-tetrahydro-1H-pyrido[3,4-b]indol-1-yl)-3,5-difluorophenyl)-3-fluoroazetidine-3-carbonyl)piperidin-4-yl)methyl)-2-(2,6-dioxopiperidin-3-yl)-6,7-dihydropyrrolo[3,4-f]isoindole-1,3(2H,5H)-dione], the DC50 lay within 10 to 100 nM.

For `O=C1CCC(N2C(=O)c3cc4c(cc3C2=O)CN(C(=O)C2CCN(C3CCN(c5ccc([C@@H]6c7ccc(O)cc7CC[C@@H]6c6ccc(F)cc6)cc5)CC3)CC2)C4)C(=O)N1` (mixture of isomers) [E 12, Rac-2-(2,6-dioxopiperidin-3-yl)-6-(1′-(4-((1R,2S)-2-(4-fluorophenyl)-6-hydroxy-1,2,3,4-tetrahydronaphthalen-1-yl)phenyl)-[1,4′-bipiperidine]-4-carbonyl)-6,7-dihydropyrrolo[3,4-f]isoindole-1,3(2H,5H)-dione], the DC50 was < 10 nM.

Take `C[C@@H]1Cc2c([nH]c3ccccc23)[C@@H](c2c(F)cc(N3CCC(N4CC(CC(=O)N5Cc6cc7c(cc6C5)C(=O)N(C5CCC(=O)NC5=O)C7=O)C4)CC3)cc2F)N1CC(F)F` (stereo partly drawn) [E 55, 6-(2-(1-(1-(4-((1R,3R)-2-(2,2-difluoroethyl)-3-methyl-2,3,4,9-tetrahydro-1H-pyrido[3,4-b]indol-1-yl)-3,5-difluorophenyl)piperidin-4-yl)azetidin-3-yl)acetyl)-2-(2,6-dioxopiperidin-3-yl)-6,7-dihydropyrrolo[3,4-f]isoindole-1,3(2H,5H)-dione]: the DC50 was > 100 nM.

Turning to `CN(C1CCN(c2ccc([C@@H]3c4ccc(O)cc4CC[C@@H]3c3ccccc3)cc2)CC1)C1CC(C(=O)N2Cc3cc4c(cc3C2)C(=O)N(C2CCC(=O)NC2=O)C4=O)C1` (stereo partly drawn) [E 362, 2-(2,6-dioxopiperidin-3-yl)-6-(3-((1-(4-((1R,2S)-6-hydroxy-2-phenyl-1,2,3,4-tetrahydronaphthalen-1-yl)phenyl)piperidin-4-yl)(methyl)amino)cyclobutane-1-carbonyl)-6,7-dihydropyrrolo[3,4-f]isoindole-1,3(2H,5H)-dione], the DC50 is > 100 nM.

As for `CN(C1CN(c2ccc([C@@H]3c4ccc(O)cc4CC[C@@H]3c3ccccc3)cc2)C1)[C@H]1CC[C@H](C(=O)N2Cc3cc4c(cc3C2)C(=O)N(C2CCC(=O)NC2=O)C4)CC1` (single isomer, unassigned) [E 355], the 50% degradation concentration (DC50) is > 100 nM.

`C[C@@H]1Cc2c([nH]c3ccccc23)[C@@H](c2cnc(N3CCC(CN4CCC(N5Cc6cc7c(cc6C5)C(=O)N(C5CCC(=O)NC5=O)C7=O)CC4)CC3)nc2)N1CC(F)(F)F` (stereo partly drawn) [E 256, 2-(2,6-dioxopiperidin-3-yl)-6-(1-((1-(5-((1R,3R)-3-methyl-2-(2,2,2-trifluoroethyl)-2,3,4,9-tetrahydro-1H-pyrido[3,4-b]indol-1-yl)pyrimidin-2-yl)piperidin-4-yl)methyl)piperidin-4-yl)-6,7-dihydropyrrolo[3,4-f]isoindole-1,3(2H,5H)-dione]: the DC50 fell in the range of 10 to 100 nM.

`C[C@@H]1Cc2c([nH]c3ccccc23)[C@@H](c2c(F)cc(N3CCC(N4CCN(CC(=O)N5Cc6cc7c(cc6C5)C(=O)N(C5CCC(=O)NC5=O)C7=O)CC4)CC3)cc2F)N1CC(F)F` (stereo partly drawn) [E 95, 6-(2-(4-(1-(4-((1R,3R)-2-(2,2-difluoroethyl)-3-methyl-2,3,4,9-tetrahydro-1H-pyrido[3,4-b]indol-1-yl)-3,5-difluorophenyl)piperidin-4-yl)piperazin-1-yl)acetyl)-2-(2,6-dioxopiperidin-3-yl)-6,7-dihydropyrrolo[3,4-f]isoindole-1,3(2H,5H)-dione]: the DC50 was < 10 nM.

`C[C@@H]1Cc2c([nH]c3ccccc23)[C@@H](c2ccc(N3CCC4(CCN(C(=O)CN5Cc6cc7c(cc6C5)C(=O)N(C5CCC(=O)NC5=O)C7=O)CC4)CC3)cc2F)N1CC(F)F` (stereo partly drawn) [E 293, 6-(2-(9-(4-((1R,3R)-2-(2,2-difluoroethyl)-3-methyl-2,3,4,9-tetrahydro-1H-pyrido[3,4-b]indol-1-yl)-3-fluorophenyl)-3,9-diazaspiro[5.5]undecan-3-yl)-2-oxoethyl)-2-(2,6-dioxopiperidin-3-yl)-6,7-dihydropyrrolo[3,4-f]isoindole-1,3(2H,5H)-dione]: the half-maximal degradation concentration (DC50) was 10 to 100 nM.

As for `C[C@H]1Cc2c([nH]c3ccccc23)[C@H](c2c(F)cc(N3CC4(CCN(C(=O)CN5Cc6cc7c(cc6C5)C(=O)N(C5CCC(=O)NC5=O)C7)CC4)C3)cc2F)N1CC(F)F` (stereo in doubt) [E 85, 3-(6-(2-(2-(4-((1S,3S)-2-(2,2-difluoroethyl)-3-methyl-2,3,4,9-tetrahydro-1H-pyrido[3,4-b]indol-1-yl)-3,5-difluorophenyl)-2,7-diazaspiro[3.5]nonan-7-yl)-2-oxoethyl)-1-oxo-3,5,6,7-tetrahydropyrrolo[3,4-f]isoindol-2(1H)-yl)piperidine-2,6-dione], the DC50 is < 10 nM.

Staying with this assay, now noted: compounds 16 hours, Table A does not say whether T47D or MCF7, read-out: Potency (DC50).
Turning to `C[C@@H]1Cc2cc(O)ccc2[C@@H](c2c(F)cc(C(=O)N3CC4(CCC(CN5Cc6cc7c(cc6C5)C(=O)N(C5CCC(=O)NC5=O)C7=O)CC4)C3)cc2F)N1CC(F)F` (stereo partly drawn) [E 464, 6-((2-(4-((1S,3R)-2-(2,2-difluoroethyl)-6-hydroxy-3-methyl-1,2,3,4-tetrahydroisoquinolin-1-yl)-3,5-difluorobenzoyl)-2-azaspiro[3.5]nonan-7-yl)methyl)-2-(2,6-dioxopiperidin-3-yl)-6,7-dihydropyrrolo[3,4-f]isoindole-1,3(2H,5H)-dione], the DC50 is > 100 nM.
